Data from US11377442B2, “Small molecule agonists and antagonists of NR2F6 activity” (ZANDER THERAPEUTICS, INC., priority 2016, dated 2022).
Read-outs that look alike come from different tables or passages of the source.

How the values were obtained:
Format in all cases: cell-based
Renilla = Renilla signal in NR2F6 agonist screening, cmpd/DMSO; conditions: Renilla, F4
NR2F6 = biological target: T1, NR2F6 (Homo sapiens, UniProt P10588); experiment: NR2F6 agonist screening, Firefly signal cmpd/DMSO; conditions: for Activity, cmpd/DMSO: Table 31
T1 construct: expressed in transfected cells; also transient transfection
T1 sequence (P10588 1-404): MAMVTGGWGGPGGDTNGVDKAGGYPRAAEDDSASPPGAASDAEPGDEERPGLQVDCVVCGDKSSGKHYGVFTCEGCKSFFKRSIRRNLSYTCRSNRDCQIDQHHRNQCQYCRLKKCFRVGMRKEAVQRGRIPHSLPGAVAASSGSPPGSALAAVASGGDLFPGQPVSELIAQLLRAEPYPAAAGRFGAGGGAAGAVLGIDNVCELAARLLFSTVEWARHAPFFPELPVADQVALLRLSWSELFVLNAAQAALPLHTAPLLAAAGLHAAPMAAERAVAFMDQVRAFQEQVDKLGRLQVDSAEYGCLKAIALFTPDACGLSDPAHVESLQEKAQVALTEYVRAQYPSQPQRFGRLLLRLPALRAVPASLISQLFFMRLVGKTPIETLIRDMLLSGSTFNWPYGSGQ

HEK293 pGL4 = experiment: Firefly_pGL signal, cmpd/DMSO (pGL4 control cells); conditions: Homo sapiens
NR2F6 LBD = biological target: T2, NR2F6 LBD (Homo sapiens, UniProt P10588); experiment: NR2F6 LBD transient transfection; conditions: LBD
T2 construct: expressed in transfected cells
T2 sequence (P10588 165-393 limits assumed): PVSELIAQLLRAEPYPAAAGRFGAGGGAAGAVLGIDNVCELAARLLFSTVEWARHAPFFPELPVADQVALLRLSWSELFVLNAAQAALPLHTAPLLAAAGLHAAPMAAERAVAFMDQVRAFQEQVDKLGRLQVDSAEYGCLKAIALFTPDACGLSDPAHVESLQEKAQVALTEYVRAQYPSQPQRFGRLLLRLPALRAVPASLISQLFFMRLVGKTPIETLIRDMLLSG
Outline: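 LBD-transfected cells treated at 40, 10, 2 and 0.5 μM (4 replicates); cytotoxicity measured in parallel, normalized to DMSO (0%) and zero signal (100%). Higher concentrations excluded where signal loss reflected toxicity.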

[1] = read-out: Renilla, F4, cmpd/DMSO (mean)
[2] = 1% FBS, read-out: Renilla, F4, 1% FBS, cmpd/DMSO (mean)
[3] = 10% FBS, read-out: Renilla, F4, 10% FBS, cmpd/DMSO (mean)
[4] = HEK293, 0.5 uM, pGL4, read-out: Firefly pGL4, cmpd/DMSO (mean)
[5] = HEK293, 2 uM, pGL4, read-out: Firefly pGL4, cmpd/DMSO (mean)
[6] = HEK293, 10 uM, pGL4, read-out: Firefly pGL4, cmpd/DMSO (mean)
[7] = HEK293, 40 uM, pGL4, read-out: Firefly pGL4, cmpd/DMSO (mean)
[8] = HEK293, pGL4, 1% FBS, 0.5 uM, read-out: Firefly, pGL4, 1% FBS, cmpd/DMSO (mean)
[9] = HEK293, pGL4, 1% FBS, 2 uM, read-out: Firefly, pGL4, 1% FBS, cmpd/DMSO (mean)
[10] = HEK293, pGL4, 1% FBS, 10 uM, read-out: Firefly, pGL4, 1% FBS, cmpd/DMSO (mean)
[11] = HEK293, pGL4, 1% FBS, 40 uM, read-out: Firefly, pGL4, 1% FBS, cmpd/DMSO (mean)
[12] = HEK293, pGL4, 10% FBS, 0.5 uM, read-out: Firefly, pGL4, 10% FBS, cmpd/DMSO (mean)
[13] = HEK293, pGL4, 10% FBS, 2 uM, read-out: Firefly, pGL4, 10% FBS, cmpd/DMSO (mean)
[14] = HEK293, pGL4, 10% FBS, 10 uM, read-out: Firefly, pGL4, 10% FBS, cmpd/DMSO (mean)
[15] = HEK293, pGL4, 10% FBS, 40 uM, read-out: Firefly, pGL4, 10% FBS, cmpd/DMSO (mean)

Compound: O=S1(=O)C[C@H](N2CCCCC2)[C@@H](S(=O)(=O)c2cccs2)C1 [Compound D105]
- fold induction at 0.5 µM (Renilla; [1]): 1.1
- fold induction at 2 µM (Renilla; [1]): 1.2
- fold induction at 10 µM (Renilla; [1]): 1.7
- fold induction at 40 µM (Renilla; [1]): 0.7
- fold induction at 0.5 µM (Renilla; [2]): 1.1
- fold induction at 2 µM (Renilla; [2]): 1.2
- fold induction at 10 µM (Renilla; [2]): 2
- fold induction at 40 µM (Renilla; [2]): 1.6
- fold induction at 0.5 µM (Renilla; [3]): 1.1
- fold induction at 2 µM (Renilla; [3]): 1.2
- fold induction at 10 µM (Renilla; [3]): 2.1
- fold induction at 40 µM (Renilla; [3]): 2.6
- Firefly F4, cmpd/DMSO (mean) (NR2F6; 0.5 uM): 1.1
- Firefly F4, cmpd/DMSO (mean) (NR2F6; 2 uM): 2.4
- Firefly F4, cmpd/DMSO (mean) (NR2F6; 10 uM): 5.5
- Firefly F4, cmpd/DMSO (mean) (NR2F6; 40 uM): 0.9
- F4, Firefly/Renilla for S/B(F4) > 3 (NR2F6; 1% FBS, 10 uM): 2.5
- Firefly, F4/pGL4 for S/B(F4) > 3 (NR2F6; 1% FBS, 10 uM): 1.9
- F4, Firefly/Renilla for S/B(F4) > 3 (NR2F6; 10% FBS, 10 uM): 4.3
- Firefly, F4/pGL4 for S/B(F4) > 3 (NR2F6; 10% FBS, 10 uM): 3.4
- F4, Firefly/Renilla for S/B(F4) > 3 (NR2F6; 10% FBS, 40 uM): 1.4
- Firefly, F4/pGL4 for S/B(F4) > 3 (NR2F6; 10% FBS, 40 uM): 2.1
- Firefly, F4, 1% FBS, cmpd/DMSO (mean) (NR2F6; 1% FBS, 0.5 uM): 1.5
- Firefly, F4, 1% FBS, cmpd/DMSO (mean) (NR2F6; 1% FBS, 2 uM): 1.7
- Firefly, F4, 1% FBS, cmpd/DMSO (mean) (NR2F6; 1% FBS, 10 uM): 4.9
- Firefly, F4, 1% FBS, cmpd/DMSO (mean) (NR2F6; 1% FBS, 40 uM): 0.3
- Firefly, F4, 10% FBS, cmpd/DMSO (mean) (NR2F6; 10% FBS, 0.5 uM): 1.0
- Firefly, F4, 10% FBS, cmpd/DMSO (mean) (NR2F6; 10% FBS, 2 uM): 1.5
- Firefly, F4, 10% FBS, cmpd/DMSO (mean) (NR2F6; 10% FBS, 10 uM): 8.9
- Firefly, F4, 10% FBS, cmpd/DMSO (mean) (NR2F6; 10% FBS, 40 uM): 3.6
- Activity, cmpd/DMSO (NR2F6): 5.7
- fold induction at 0.5 µM (HEK293 pGL4; [4]): 1.2
- fold induction at 2 µM (HEK293 pGL4; [5]): 1.9
- fold induction at 10 µM (HEK293 pGL4; [6]): 3.8
- fold induction at 40 µM (HEK293 pGL4; [7]): 0.7
- fold induction at 0.5 µM (HEK293 pGL4; [8]): 1.4
- fold induction at 2 µM (HEK293 pGL4; [9]): 1.2
- fold induction at 10 µM (HEK293 pGL4; [10]): 2.6
- fold induction at 40 µM (HEK293 pGL4; [11]): 1.1
- fold induction at 0.5 µM (HEK293 pGL4; [12]): 1.3
- fold induction at 2 µM (HEK293 pGL4; [13]): 1.6
- fold induction at 10 µM (HEK293 pGL4; [14]): 2.6
- fold induction at 40 µM (HEK293 pGL4; [15]): 1.7
- Firefly LBD, cmpd/DMSO (mean) (NR2F6 LBD; 0.5 uM): 1.2
- Firefly LBD, cmpd/DMSO (mean) (NR2F6 LBD; 2 uM): 1.8
- Firefly LBD, cmpd/DMSO (mean) (NR2F6 LBD; 10 uM): 3.8
- Firefly LBD, cmpd/DMSO (mean) (NR2F6 LBD; 40 uM): 0.7

Compound: O=S1(=O)C[C@H](N2CCCCC2)[C@@H](S(=O)(=O)c2ccc(Cl)cc2)C1 [Compound D123]
- fold induction at 0.5 µM (Renilla; [1]): 1.1
- fold induction at 2 µM (Renilla; [1]): 1.4
- fold induction at 10 µM (Renilla; [1]): 1.9
- fold induction at 40 µM (Renilla; [1]): 0.3
- fold induction at 0.5 µM (Renilla; [2]): 1.1
- fold induction at 2 µM (Renilla; [2]): 1.4
- fold induction at 10 µM (Renilla; [2]): 1.6
- fold induction at 40 µM (Renilla; [2]): 0.1
- fold induction at 0.5 µM (Renilla; [3]): 0.9
- fold induction at 2 µM (Renilla; [3]): 1.1
- fold induction at 10 µM (Renilla; [3]): 1.9
- fold induction at 40 µM (Renilla; [3]): 0.2
- Firefly F4, cmpd/DMSO (mean) (NR2F6; 0.5 uM): 1.8
- Firefly F4, cmpd/DMSO (mean) (NR2F6; 2 uM): 2.5
- Firefly F4, cmpd/DMSO (mean) (NR2F6; 10 uM): 7.1
- Firefly F4, cmpd/DMSO (mean) (NR2F6; 40 uM): 0.7
- F4, Firefly/Renilla for S/B(F4) > 3 (NR2F6; 1% FBS, 10 uM): 2.7
- Firefly, F4/pGL4 for S/B(F4) > 3 (NR2F6; 1% FBS, 10 uM): 1.6
- F4, Firefly/Renilla for S/B(F4) > 3 (NR2F6; 10% FBS, 10 uM): 4.0
- Firefly, F4/pGL4 for S/B(F4) > 3 (NR2F6; 10% FBS, 10 uM): 2.5
- Firefly, F4, 1% FBS, cmpd/DMSO (mean) (NR2F6; 1% FBS, 0.5 uM): 1.3
- Firefly, F4, 1% FBS, cmpd/DMSO (mean) (NR2F6; 1% FBS, 2 uM): 2.1
- Firefly, F4, 1% FBS, cmpd/DMSO (mean) (NR2F6; 1% FBS, 10 uM): 4.4
- Firefly, F4, 1% FBS, cmpd/DMSO (mean) (NR2F6; 1% FBS, 40 uM): 0.2
- Firefly, F4, 10% FBS, cmpd/DMSO (mean) (NR2F6; 10% FBS, 0.5 uM): 1.1
- Firefly, F4, 10% FBS, cmpd/DMSO (mean) (NR2F6; 10% FBS, 2 uM): 2.0
- Firefly, F4, 10% FBS, cmpd/DMSO (mean) (NR2F6; 10% FBS, 10 uM): 7.5
- Firefly, F4, 10% FBS, cmpd/DMSO (mean) (NR2F6; 10% FBS, 40 uM): 0.8
- Activity, cmpd/DMSO (NR2F6): 6.1
- fold induction at 0.5 µM (HEK293 pGL4; [4]): 1.2
- fold induction at 2 µM (HEK293 pGL4; [5]): 1.7
- fold induction at 10 µM (HEK293 pGL4; [6]): 3.4
- fold induction at 40 µM (HEK293 pGL4; [7]): 0.6
- fold induction at 0.5 µM (HEK293 pGL4; [8]): 1.1
- fold induction at 2 µM (HEK293 pGL4; [9]): 1.8
- fold induction at 10 µM (HEK293 pGL4; [10]): 2.7
- fold induction at 40 µM (HEK293 pGL4; [11]): 0.8
- fold induction at 0.5 µM (HEK293 pGL4; [12]): 1.2
- fold induction at 2 µM (HEK293 pGL4; [13]): 1.6
- fold induction at 10 µM (HEK293 pGL4; [14]): 3
- fold induction at 40 µM (HEK293 pGL4; [15]): 0.8
- Firefly LBD, cmpd/DMSO (mean) (NR2F6 LBD; 0.5 uM): 1.0
- Firefly LBD, cmpd/DMSO (mean) (NR2F6 LBD; 2 uM): 1.9
- Firefly LBD, cmpd/DMSO (mean) (NR2F6 LBD; 10 uM): 4.9
- Firefly LBD, cmpd/DMSO (mean) (NR2F6 LBD; 40 uM): 0.4
